One series deals with BnAb PG9. The series is classed as binding, human.
A further series concerns BnAb CH01. The experiment in a line: SPR binding of V1V2 peptides/glycopeptides to captured mAb CH01. More on the design: species or system human. (In general: In SPR one partner is held on a chip, and binding of the other changes the refractive index at the surface.)
The subject of the next series is V2 mAb CH58. The experiment in a line: SPR binding of V1V2 peptides/glycopeptides to captured V2 mAb CH58. Also on record: species or system human.
The subject of another series is V2 mAb CH59. Kind of series: SPR binding of V1V2 peptides to captured V2 mAb CH59. Particulars: Example 6; peptide oxidized by solubilization in DMSO, 50 ug/mL. Also on record: species or system human. From the text: FIGS. 42A-42D. Selective binding of V1V2 BnAbs to mannose derivatized V1V2 glycopeptides but not to aglycone or GlcNAc2 V1V2 peptides. SPR curves showing preferential binding of PG9 and CH01 BnAbs to Man5—(FIG. 42A) and Man3—(FIG. 42B) GlcNAc2 V1V2 glycopeptides but not to GlcNAc2 (FIG. 42C) and aglycone (FIG. 42D) peptides. By contrast, V2 mAbs CH58 and CH59 bound to both aglycone ([…]) and GlcNAc2 (FIG. 42D) V1V2 peptides. Each V1V2 peptide was oxidized by solubilization in DMSO and injected over the indicated MAb at 50 ug/mL. Data shown is after reference subtraction of non-specific signal measured over the control mAb (Synagis). Binding data are representative of at least three experiments for Man5 and Man3 V1V2 peptides and two experiments for GlcNAc2 and aglycone V1V2.
V1V2 glycopeptide binding Kd and rate constant measurements were carried out on BIAcore 3000 instruments as described earlier (Alam et al, Immunol. 178(7):4424-4435 (2007), Alam et al, J. Virol. 82(1):115-125 (2008)). Anti-human IgG Fc antibody (Sigma Chemicals) was immobilized on either a CM3 or CM5 (CM3 for kinetics and Kd determination) sensor chip (to minimize non-specific binding of peptides to chip matrix) to about 5000 Resonance Unit (RU) and each antibody was captured to about 100-200 RU on individual flow cells, in addition to one flow cell with the control Synagis mAb on the same sensor chip. […]

Another series deals with PG9 UCA. The experiment in a line: SPR binding to unmutated ancestor of PG9. More on the design: species or system human. The settings on record: for SPR binding to PG9 UA: Example 1. Here is the method: (§1) Only the V1/V2 mAb CH58 bound to the glycan-deficient (aglycone) peptide (FIG. 9A). V1/V2 bNAbs ([…], CH01) bound weakly to V1/V2 GlcNAc2 peptide (FIG. 9B). In contrast, both bNAbs PG9 and CH01 bound avidly to the glycopeptides, V1/V2 Man3GlcNAc2 and V1/V2 Man5GlcNAc2 (FIGS. 9C and 9D). CH58 bound weakly to both glycopeptides. Each of the mAbs was captured on a human Fc specific IgG directly immobilized on a BIAcore CM5 sensor chip. Each of the V1/V2 peptides (3 min at 50 uL/min) was injected over the mAb captured surface and SPR binding was monitored on a BIAcore 3000 instrument. Non-specific binding of peptides was subtracted following measurement of signal on a surface with a control ant-RSV mab Synagis.
(§2) The binding Kd (disassociation constant) of the UAs ranges from about 0.15 to 0.2 μM.
(§3) V1V2 glycopeptide binding Kd and rate constant measurements were carried out on BIAcore 3000 instruments as described earlier (Alam et al, Immunol. 178(7):4424-4435 (2007), Alam et al, J. Virol. 82(1):115-125 (2008)). Anti-human IgG Fc antibody (Sigma Chemicals) was immobilized on either a CM3 or CM5 (CM3 for kinetics and Kd determination) sensor chip (to minimize non-specific binding of peptides to chip matrix) to about 5000 Resonance Unit (RU) and each antibody was captured to about 100-200 RU on individual flow cells, in addition to one flow cell with the control Synagis mAb on the same sensor chip. Non-specific binding of V1V2 glycopeptide was double-referenced by substracting the control surface and blank buffer flow for each mAb-V1V2 glycopeptide binding interaction. […] SPR curve fitting analysis was performed using global fit of multiple titrations to the 1:1 Langmuir model. All data analysis was performed using the BIAevaluation 4.1 analysis software (GE Healthcare).

In another series the test system is CH01 UCA. The experiment in a line: SPR binding to unmutated ancestor of CH01. Also on record: species or system human. The settings on record: for SPR binding to CH01 UA: Example 1. Here is the method:
as §1, §2, §3

The test system of a further series is CH58 UCA. Kind of series: SPR binding to unmutated ancestor of CH58. The settings on record: Example 1. More on the design: species or system human. Here is the method: as §1, §3
A further series has as its system 697D. Kind of series: SPR binding to conformational V2 mAb 697D. The settings on record: Example 1.
Series [1] in a line: Aqueous solubility in phosphate buffer. The series is classed as physicochemical.
Setting [2] is: Example 6, peptide solubilized/oxidized in DMSO, 50 μg/mL.
The mark [3] stands for this setting: listed as V1V2 aglycone peptide.

The values that follow come from patent US20150283227A1, “SYNTHETIC ENV PROTEINS” (priority 2012, published 2015).

Structures are written as SMILES. Where two headings read alike, the source gives them in different places. Where a SMILES comes first, the peptide text is derived from it. [ ]: non-standard residue; d: D form. ξ: configuration not given here. Orn(CH(NH2)2) = NC(N)NCCC[C@H](N)C(=O)O; Ile(3ξ) = CCC(C)[C@H](N)C(=O)O; Thr(3ξ) = CC(O)[C@H](N)C(=O)O

Experimental for BnAb PG9: V1V2 glycopeptide binding Kd and rate constant measurements were carried out on a BIAcore 3000 instrument using an anti-human Ig Fc capture assay as described earlier (Alam, S. M.; McAdams, M.; Boren, D.; Rak, M.; Scearce, R. M.; Gao, F.; Camacho, Z. T.; Gewirth, D.; Kelsoe, G.; Chen, P.; Haynes, B. F. J. Immunol. 2007, 178, 4424-4435.). Anti-human IgG Fc antibody (Sigma Chemicals) was immobilized on a CM5 sensor chip to about 10000 response units (RU), and each antibody was captured to about 300 RU. Anti-RSV Synagis mAb was captured on the same sensor chip as a control surface. Non-specific binding and drift in signal was double referenced by subtracting binding to the control surface and blank buffer flow for each of the peptide binding interactions. All curve-fitting analyses were performed using global fit of multiple titrations to the 1:1 Langmuir model. All data analysis was performed using the BIAevaluation 4.1 analysis software (GE Healthcare).

For `CCC(C)[C@H](NC(=O)[C@@H]1CCCN1C(=O)[C@@H](NC(=O)[C@@H](NC(=O)[C@H](CC(=O)O)NC(=O)[C@H](CC(C)C)NC(=O)[C@H](CCCCN)NC(=O)[C@H](Cc1ccc(O)cc1)NC(=O)[C@H](Cc1ccccc1)NC(=O)[C@H](CC(C)C)NC(=O)[C@H](C)NC(=O)[C@H](Cc1cnc[nH]1)NC(=O)[C@@H](NC(=O)[C@H](CCCCN)NC(=O)[C@H](CCC(N)=O)NC(=O)[C@H](CCCCN)NC(=O)[C@H](CCCCN)NC(=O)[C@H](CC(=O)O)NC(=O)[C@H](CCCNC(=N)N)NC(=O)[C@H](CC(C)C)NC(=O)[C@H](CCC(=O)O)NC(=O)[C@@H](NC(=O)[C@@H](NC(=O)[C@H](CCSC)NC(=O)[C@H](CC(N)=O)NC(=O)[C@H](Cc1ccccc1)NC(=O)[C@H](CO)NC(=O)[C@H](CS)NC(=O)[C@H](CC(N)=O)NC(=O)[C@H](CCCNC(N)N)NC(=O)[C@@H](NC(=O)[C@H](CCC(=O)O)NC(=O)[C@H](CC(=O)O)NC(=O)[C@@H](NC(=O)[C@@H](NC(C)=O)C(C)CC)C(C)O)C(C)C)C(C)O)C(C)O)C(C)C)C(C)CC)C(C)C)C(N)=O` (some centres unmarked) [Aglycone V1V2] (Ac-[Ile(3ξ)][Thr(3ξ)]DEV[Orn(CH(NH2)2)]NCSFNM[Thr(3ξ)][Thr(3ξ)]ELRDKKQKVHALFYKLD[Ile(3ξ)]VP[Ile(3ξ)]-NH2), the “SPR binding to PG9” value is recorded as “not detected” with BnAb PG9 (Example 5, peptides 200 μg/mL, glycans 25 μg/mL over captured PG9); “minimal to no binding” in the series on BnAb PG9 (Example 5, peptides 200 μg/mL, glycans 25 μg/mL over captured PG9, listed as V1V2 aglycone); “no binding” with BnAb PG9 (setting [2]). In addition, the “SPR binding to CH01” value in the series with BnAb CH01 (Example 1, peptide injected over captured mAb) is listed as “not to the aglycone peptide”; in the series on BnAb CH01 (setting [2]), “no binding”. Moreover, the “SPR binding to CH58” value is “bound” in the series on V2 mAb CH58 (Example 1, antigen injected over captured mAb) and “retained” in the series on V2 mAb CH58 (Example 6, peptide solubilized/oxidized in DMSO, 1-50 μg/mL). The “SPR binding to CH59” value with V2 mAb CH59 is on record as “bound”. Also, the results for the “SPR binding to PG9 UA” value in the series with PG9 UCA and in the series on PG9 UCA (setting [3]) were “not to the aglycone peptide” and “no binding”, respectively. Besides, in the series on PG9 UCA (Example 6), the “SPR binding to PG9 UCA” value was “neither UCAs bound”. Besides, the figures for the “SPR binding to CH01 UA” value in the series with CH01 UCA and in the series with CH01 UCA (setting [3]) were “not to the aglycone peptide” and “no binding”, respectively. In addition, the “SPR binding to CH01 UCA” value in the series on CH01 UCA (Example 6) was “neither UCAs bound”. Moreover, in the series with CH58 UCA, the “SPR binding to CH58 UA” value is listed as “no binding”. For the same molecule, in the series with 697D, the “SPR binding to 697D” value is recorded as “not to the aglycone peptide”. The aqueous solubility entry in series [1] is “Poor aqueous solubility”.
